Where two headings read alike, the source gives them in different places.
Experiments:
Assay type in all cases: biochemical
Xa = Xa (Homo sapiens, UniProt P00742); test: Determination of inhibition constants for Xa
Experimental: (§1) The inhibitory effect for the individual enzymes was determined in analogy to a previously disclosed method (Stürzebecher et al., 1997).
(§2) For zero order kinetics, the reaction was stopped after 20 min by adding 25 μl of acetic acid (50% v/v), and the absorption at 405 nm was determined using a Microplate Reader (Multiscan Ascent, from Thermo). In the case of pseudo-first order kinetics, the reaction rates in the equilibrium state were ascertained by recording the reaction kinetics. The Ki values were ascertained either in accordance with Dixon (1953) by linear regression using a computer program or by parameter fitting in accordance with the rate equation for competitive inhibition. The Ki values are the average of at least two determinations.

Thrombin = Thrombin (Homo sapiens, UniProt P00734); test: Determination of inhibition constants for thrombin
Experimental: as §1, §2

plasmin = plasmin (Homo sapiens, UniProt P00747); test: Determination of inhibition constants for plasmin; design: purchased Calbiochem; details: 25° C., substrate Chromozym PL, pH 8.0; read-out: Plasmin [Ki]
plasmin, sequence (P00747 581-810 limits assumed): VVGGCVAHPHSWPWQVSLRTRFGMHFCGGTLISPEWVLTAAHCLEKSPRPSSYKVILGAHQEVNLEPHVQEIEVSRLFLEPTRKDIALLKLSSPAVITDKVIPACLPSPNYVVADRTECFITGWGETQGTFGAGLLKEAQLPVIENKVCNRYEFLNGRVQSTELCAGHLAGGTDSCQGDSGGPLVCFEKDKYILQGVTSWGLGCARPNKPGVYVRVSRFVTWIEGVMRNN
plasmin, sequence (P00747 97-580 partner limits assumed): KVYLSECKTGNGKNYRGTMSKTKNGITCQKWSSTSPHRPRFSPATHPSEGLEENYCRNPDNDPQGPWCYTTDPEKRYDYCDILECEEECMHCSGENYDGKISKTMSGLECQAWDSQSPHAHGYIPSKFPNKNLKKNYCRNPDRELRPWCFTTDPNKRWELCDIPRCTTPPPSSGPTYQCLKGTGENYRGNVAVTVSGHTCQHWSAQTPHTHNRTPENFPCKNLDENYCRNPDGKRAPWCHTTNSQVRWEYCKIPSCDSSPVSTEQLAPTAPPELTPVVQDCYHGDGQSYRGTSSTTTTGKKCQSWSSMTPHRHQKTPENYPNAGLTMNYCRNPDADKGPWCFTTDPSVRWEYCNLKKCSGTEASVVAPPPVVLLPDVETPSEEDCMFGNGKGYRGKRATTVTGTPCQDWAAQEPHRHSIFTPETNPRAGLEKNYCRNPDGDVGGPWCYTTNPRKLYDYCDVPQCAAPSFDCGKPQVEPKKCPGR
Experimental: as §1, §2

plasma kallikrein = plasma kallikrein (Homo sapiens, UniProt P03952); test: Determination of inhibition constants for PK; design: purchased Enzyme Research Lab. / Enzyme Research Laboratories
plasma kallikrein, sequence (P03952 391-638 limits assumed): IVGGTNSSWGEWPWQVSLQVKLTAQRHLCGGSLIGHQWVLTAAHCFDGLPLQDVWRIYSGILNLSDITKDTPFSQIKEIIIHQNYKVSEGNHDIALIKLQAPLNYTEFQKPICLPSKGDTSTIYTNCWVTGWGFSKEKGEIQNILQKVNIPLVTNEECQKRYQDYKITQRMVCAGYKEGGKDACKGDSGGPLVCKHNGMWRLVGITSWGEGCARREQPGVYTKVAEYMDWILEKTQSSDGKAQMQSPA
plasma kallikrein, sequence (P03952 20-390 partner limits assumed): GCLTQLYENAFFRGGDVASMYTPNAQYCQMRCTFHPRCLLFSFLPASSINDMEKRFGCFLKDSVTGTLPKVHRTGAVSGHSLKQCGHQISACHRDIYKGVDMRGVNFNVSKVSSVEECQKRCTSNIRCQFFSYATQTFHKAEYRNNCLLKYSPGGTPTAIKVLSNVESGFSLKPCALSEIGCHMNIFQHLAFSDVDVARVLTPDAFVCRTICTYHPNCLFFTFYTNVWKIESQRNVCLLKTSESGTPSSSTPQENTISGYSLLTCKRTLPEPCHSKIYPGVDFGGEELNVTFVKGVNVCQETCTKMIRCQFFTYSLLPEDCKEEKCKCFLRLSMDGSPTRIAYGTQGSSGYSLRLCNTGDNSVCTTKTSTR
Experimental: as §1, §2

[1] = 25° C., substrate S2302, pH 8.0, read-out: PK [Ki]
[2] = summary of results, read-out: Ki value of the plasma kallikrein inhibition

Xa, sequence (P00742 235-488 limits assumed): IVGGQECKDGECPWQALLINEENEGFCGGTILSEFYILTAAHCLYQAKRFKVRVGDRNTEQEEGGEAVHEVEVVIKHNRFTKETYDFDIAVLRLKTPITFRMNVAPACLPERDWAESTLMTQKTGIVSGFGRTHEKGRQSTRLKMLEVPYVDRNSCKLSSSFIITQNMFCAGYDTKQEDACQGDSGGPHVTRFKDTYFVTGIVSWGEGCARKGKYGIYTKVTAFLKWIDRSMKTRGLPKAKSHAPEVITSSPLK
Xa, sequence (P00742 41-179 limits assumed): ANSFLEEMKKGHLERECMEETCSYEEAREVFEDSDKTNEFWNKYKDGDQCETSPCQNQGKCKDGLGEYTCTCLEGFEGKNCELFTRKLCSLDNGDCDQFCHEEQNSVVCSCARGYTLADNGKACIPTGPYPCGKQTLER

| Compound | Ki (Xa) | Ki (Thrombin) | Ki (plasmin) | Ki (plasma kallikrein; [1]) | Ki (plasma kallikrein; [2]) |
| --- | --- | --- | --- | --- | --- |
| N=C(N)c1ccc(CNC(=O)[C@H](CCc2ccncc2)NC(=O)[C@@H](CCc2ccc(O)cc2)NS(=O)(=O)Cc2ccccc2)cc1 [compound 47] | < 0.01 µM | < 0.01 µM | < 0.01 µM | < 0.01 µM |  |
| N=C(N)c1ccc(CNC(=O)[C@H](CCCc2ccccc2)NC(=O)[C@@H](CCc2ccncc2)NS(=O)(=O)Cc2ccccc2)cc1 [compound 48] | < 0.01 µM | < 1 µM | < 0.01 µM | < 0.01 µM |  |
| N=C(N)c1ccc(CNC(=O)[C@H](CCc2ccccc2)NC(=O)[C@@H](CCCc2ccncc2)NS(=O)(=O)Cc2ccccc2)cc1 [compound 49] | < 0.1 µM | < 0.1 µM | < 0.01 µM | < 0.01 µM |  |
| N=C(N)c1ccc(CNC(=O)[C@H](CCc2ccccc2)NC(=O)[C@@H](CCCc2ccncc2)NS(=O)(=O)Cc2cccc(C(=O)O)c2)cc1 [compound 50] | < 0.1 µM | < 1 µM | < 0.01 µM | < 0.01 µM |  |
| N=C(N)c1ccc(CNC(=O)[C@H](CCc2ccccc2)NC(=O)[C@@H](CCCc2cccnc2)NS(=O)(=O)Cc2ccccc2)cc1 [compound 51] | < 0.01 µM | < 0.01 µM | < 0.01 µM | < 0.01 µM |  |
| N=C(N)c1ccc(CNC(=O)[C@H](CCc2ccccc2)NC(=O)[C@@H](CCCc2cccnc2)NS(=O)(=O)Cc2cccc(C(=O)O)c2)cc1 [compound 52] | < 0.01 µM | < 0.1 µM | < 0.01 µM | < 0.01 µM |  |
| N=C(N)c1ccc(CNC(=O)[C@H](CCc2ccccc2)NC(=O)[C@@H](CCCc2cc[n+]([O-])cc2)NS(=O)(=O)Cc2ccccc2)cc1 [compound 53] | < 0.01 µM | < 0.1 µM | < 0.01 µM | < 0.01 µM |  |
| N=C(N)c1ccc(CNC(=O)[C@H](CCc2ccccc2)NC(=O)[C@@H](CCCc2cc[n+]([O-])cc2)NS(=O)(=O)Cc2cccc(C(=O)O)c2)cc1 [compound 54] | < 0.1 µM | > 1 µM | < 0.01 µM | < 0.01 µM |  |
| N=C(N)c1ccc(CNC(=O)[C@H](CCc2ccccc2)NC(=O)[C@@H](CCCc2ccc[n+]([O-])c2)NS(=O)(=O)Cc2ccccc2)cc1 [compound 55] | < 0.01 µM | < 0.1 µM | < 0.01 µM | < 0.01 µM |  |
| N=C(N)c1ccc(CNC(=O)[C@H](CCc2ccccc2)NC(=O)[C@@H](CCCc2ccc[n+]([O-])c2)NS(=O)(=O)Cc2cccc(C(=O)O)c2)cc1 [compound 56] | < 0.01 µM | < 1 µM | < 0.01 µM | < 0.01 µM |  |
| CC(C)(C)OC(=O)NCCCC[C@@H](NS(=O)(=O)Cc1ccccc1)C(=O)N[C@@H](Cc1cccc(CN)c1)C(=O)NCc1ccc(C(=N)N)cc1 [compound 57] | < 0.1 µM | > 1 µM | < 0.01 µM | < 0.01 µM |  |
| CC(C)(C)OC(=O)NCCCC[C@@H](NS(=O)(=O)Cc1ccc(C(=O)O)cc1)C(=O)N[C@@H](Cc1cccc(CN)c1)C(=O)NCc1ccc(C(=N)N)cc1 [compound 58] | < 1 µM | > 1 µM | < 0.1 µM | < 0.01 µM |  |
| N=C(N)c1ccc(CNC(=O)[C@H](Cc2cccc(CN)c2)NC(=O)[C@@H](CCCCN)NS(=O)(=O)Cc2ccccc2)cc1 [compound 59] | < 1 µM | > 1 µM | < 0.1 µM | < 0.01 µM |  |
| CC(C)(C)OC(=O)NC[C@@H](NS(=O)(=O)Cc1ccccc1)C(=O)N[C@@H](Cc1cccc(CN)c1)C(=O)NCc1ccc(C(=N)N)cc1 [compound 60] | < 1 µM | > 1 µM | < 0.1 µM | < 0.01 µM |  |
| N=C(N)c1ccc(CNC(=O)[C@H](Cc2cccc(CN)c2)NC(=O)[C@@H](CN)NS(=O)(=O)Cc2ccccc2)cc1 [compound 61] | > 1 µM | > 1 µM | < 0.1 µM | < 0.01 µM |  |
| CC(C)(C)OC(=O)NCCCC[C@@H](NS(=O)(=O)Cc1ccccc1)C(=O)N[C@@H](CCc1ccncc1)C(=O)NCc1ccc(C(=N)N)cc1 [compound 62] | < 1 µM | < 1 µM | < 0.01 µM | < 0.01 µM |  |
| CC(C)(C)OC[C@@H](NS(=O)(=O)Cc1ccccc1)C(=O)N[C@@H](Cc1cccc(CN)c1)C(=O)NCc1ccc(C(=N)N)cc1 [compound 63] | < 1 µM | < 1 µM | < 0.01 µM | < 0.01 µM |  |
| COC(=O)c1ccc(CS(=O)(=O)N[C@H](COC(C)(C)C)C(=O)N[C@@H](Cc2cccc(CN)c2)C(=O)NCc2ccc(C(=N)N)cc2)cc1 [compound 64] | > 1 µM | > 1 µM | < 0.01 µM | < 0.01 µM | < 0.001 µM |
| CC(C)(C)OC[C@@H](NS(=O)(=O)Cc1ccc(C(=O)O)cc1)C(=O)N[C@@H](Cc1cccc(CN)c1)C(=O)NCc1ccc(C(=N)N)cc1 [compound 65] | < 1 µM | > 1 µM | < 0.1 µM | < 0.01 µM | < 0.001 µM |
| COC(=O)c1cccc(CS(=O)(=O)N[C@H](COC(C)(C)C)C(=O)N[C@@H](Cc2cccc(CN)c2)C(=O)NCc2ccc(C(=N)N)cc2)c1 [compound 66] | < 0.1 µM | > 1 µM | < 0.01 µM | < 0.01 µM |  |
| CC(C)(C)OC[C@@H](NS(=O)(=O)Cc1cccc(C(=O)O)c1)C(=O)N[C@@H](Cc1cccc(CN)c1)C(=O)NCc1ccc(C(=N)N)cc1 [compound 67] | < 0.1 µM | > 1 µM | < 0.01 µM | < 0.01 µM |  |
| N=C(N)c1ccc(CNC(=O)[C@H](Cc2cccc(CN)c2)NC(=O)[C@@H](CO)NS(=O)(=O)Cc2ccccc2)cc1 [compound 68] | > 1 µM | > 1 µM | < 0.1 µM | < 0.01 µM |  |
| COC(=O)c1ccc(CS(=O)(=O)N[C@H](CO)C(=O)N[C@@H](Cc2cccc(CN)c2)C(=O)NCc2ccc(C(=N)N)cc2)cc1 [compound 69] | > 1 µM | > 1 µM | < 0.1 µM | < 0.01 µM |  |
| N=C(N)c1ccc(CNC(=O)[C@H](Cc2cccc(CN)c2)NC(=O)[C@@H](CO)NS(=O)(=O)Cc2ccc(C(=O)O)cc2)cc1 [compound 70] | > 1 µM | > 1 µM | < 0.1 µM | < 0.01 µM |  |
| CC(C)(C)OC[C@@H](NS(=O)(=O)Cc1ccccc1)C(=O)N[C@@H](CCc1cccc(CN)c1)C(=O)NCc1ccc(C(=N)N)cc1 [compound 73] | < 1 µM | < 0.1 µM | < 0.1 µM | < 0.1 µM |  |
| N=C(N)c1ccc(CNC(=O)[C@H](CCc2cccc(CN)c2)NC(=O)[C@@H](CO)NS(=O)(=O)Cc2ccccc2)cc1 [compound 74] | > 1 µM | > 1 µM | < 0.1 µM | < 0.1 µM |  |
| N=C(N)c1ccc(CNC(=O)[C@H](Cc2ccc(C(=N)N)cc2)NC(=O)[C@@H](CO)NS(=O)(=O)Cc2ccccc2)cc1 [compound 76] | > 1 µM | > 1 µM | < 0.1 µM | < 0.1 µM |  |
| CC(C)(C)OC[C@@H](NS(=O)(=O)Cc1ccccc1)C(=O)N[C@@H](CCc1ccc(C(=N)N)cc1)C(=O)NCc1ccc(C(=N)N)cc1 [compound 77] | < 1 µM | < 0.1 µM | < 0.01 µM | < 0.01 µM |  |
| N=C(N)c1ccc(CC[C@H](NC(=O)[C@@H](CO)NS(=O)(=O)Cc2ccccc2)C(=O)NCc2ccc(C(=N)N)cc2)cc1 [compound 78] | > 1 µM | > 1 µM | < 0.1 µM | < 0.01 µM |  |
| Bzls-d-Gly(3-O-Phpr)-Phe(3-Ame)-4-Amba×2 TFA [compound 6] | < 0.1 µM | < 1 µM | < 0.01 µM | < 0.01 µM |  |

— patent US8410310B2, “Trypsin-like serine protease inhibitors, and their preparation and use” (The Medicines Company (Leipzig) GmbH, priority 2006, dated 2013)
